Measured values: ChEMBL document CHEMBL2016509, “Design, synthesis and cytotoxic activities of novel hybrid compounds between 2-phenylbenzofuran and imidazole” (Bioorg Med Chem Lett, 2012)

Assays:
HL-60 = experiment: Cytotoxicity against human HL60 cells after 48 hrs by MTT assay; type: functional, cell-based; conditions: HL-60, 48 h
SW480 = experiment: Cytotoxicity against human SW480 cells after 48 hrs by MTT assay; type: functional, cell-based; conditions: SW480, 48 h
A549 = experiment: Cytotoxicity against human A549 cells after 48 hrs by MTT assay; type: functional, cell-based; conditions: A549, 48 h
MCF7 = experiment: Cytotoxicity against human MCF7 cells after 48 hrs by MTT assay; type: functional, cell-based; conditions: MCF7, 48 h
SMMC-7721 [1] = experiment: Cytotoxicity against human SMMC7721 cells after 48 hrs by MTT assay; type: functional, cell-based; conditions: SMMC-7721, 48 h
SMMC-7721 [2] = experiment: Ratio of DDP IC50 to compound IC50 for human SMMC7721 cells; type: functional

Brc1ccccc1C[n+]1ccn(-c2ccc(-c3cc4ccccc4o3)cc2)c1
IC50 (HL-60): 1.97 µM
IC50 (SW480): 12.7 µM
IC50 (A549): 9.77 µM
IC50 (MCF7): 14.3 µM
IC50 (SMMC-7721 [1]): 4.38 µM

O=C(C[n+]1ccn(-c2ccc(-c3cc4ccccc4o3)cc2)c1)c1ccc(Br)cc1
IC50 (HL-60): 3.15 µM
IC50 (SW480): 2.85 µM
IC50 (A549): 8.46 µM
IC50 (MCF7): 2.84 µM
IC50 (SMMC-7721 [1]): 3.39 µM

O=C(C[n+]1ccn(-c2ccc(-c3cc4ccccc4o3)cc2)c1)c1ccc2ccccc2c1.[Br-]
IC50 (HL-60): 2.49 µM
IC50 (SW480): 3.38 µM
IC50 (A549): 10.9 µM
IC50 (MCF7): 5.87 µM
IC50 (SMMC-7721 [1]): 1.65 µM
Ratio IC50 (SMMC-7721 [2]): 5.4

c1ccc2oc(-c3ccc(-n4ccnc4)cc3)cc2c1
IC50 (HL-60): > 40 µM
IC50 (SW480): > 40 µM
IC50 (A549): > 40 µM
IC50 (MCF7): > 40 µM
IC50 (SMMC-7721 [1]): > 40 µM

O=C(C[n+]1ccn(-c2ccc(-c3cc4ccccc4o3)cc2)c1)c1ccc(O)cc1
IC50 (HL-60): > 40 µM
IC50 (SW480): > 40 µM
IC50 (A549): > 40 µM
IC50 (MCF7): > 40 µM
IC50 (SMMC-7721 [1]): > 40 µM

CCCC[n+]1ccn(-c2ccc(-c3cc4ccccc4o3)cc2)c1
IC50 (HL-60): 11.8 µM
IC50 (SW480): > 40 µM
IC50 (A549): 21.7 µM
IC50 (MCF7): 31.4 µM
IC50 (SMMC-7721 [1]): 12.7 µM

c1ccc(C[n+]2ccn(-c3ccc(-c4cc5ccccc5o4)cc3)c2)cc1
IC50 (HL-60): 5.37 µM
IC50 (SW480): 19.9 µM
IC50 (A549): 25.4 µM
IC50 (MCF7): 26.9 µM
IC50 (SMMC-7721 [1]): 15.1 µM

COc1ccc(C(=O)C[n+]2ccn(-c3ccc(-c4cc5ccccc5o4)cc3)c2)cc1
IC50 (HL-60): 2.26 µM
IC50 (SW480): 6.93 µM
IC50 (A549): 9.79 µM
IC50 (MCF7): 11.3 µM
IC50 (SMMC-7721 [1]): 3.71 µM

O=C(C[n+]1ccn(-c2ccc(-c3cc4ccccc4o3)cc2)c1)c1ccccc1
IC50 (HL-60): 2.61 µM
IC50 (SW480): 10.3 µM
IC50 (A549): 12.9 µM
IC50 (MCF7): 11.9 µM
IC50 (SMMC-7721 [1]): 3.71 µM

C=CC[n+]1ccn(-c2ccc(-c3cc4ccccc4o3)cc2)c1
IC50 (HL-60): 14.5 µM
IC50 (SW480): > 40 µM
IC50 (A549): 33.5 µM
IC50 (MCF7): 13.7 µM
IC50 (SMMC-7721 [1]): 27 µM

O=C(C[n+]1ccn(-c2ccc(-c3cc4ccccc4o3)cc2)c1)c1ccc(F)cc1
IC50 (HL-60): 12.3 µM
IC50 (SW480): 16.8 µM
IC50 (A549): 19.7 µM
IC50 (MCF7): 16.7 µM
IC50 (SMMC-7721 [1]): 13.5 µM

O=C(c1ccccc1)C(c1ccccc1)[n+]1ccn(-c2ccc(-c3cc4ccccc4o3)cc2)c1 (stereo unspecified)
IC50 (HL-60): 2.7 µM
IC50 (SW480): 6.93 µM
IC50 (A549): 6.79 µM
IC50 (MCF7): 6.9 µM
IC50 (SMMC-7721 [1]): 3.31 µM
